Columns and labels:
human σ1 receptor = target: T1, human σ1 receptor (Homo sapiens, UniProt Q99720); assay: Human σ1 receptor radioligand assay ([3H](+)-pentazocine, transfected HEK-293 membranes); details: class scale, read-out: Binding σ-1 Ki
T1 construct: expressed in transfected cells; host or cells: HEK-293
How it was run: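 Compounds were tested at a single 1 or 10 μM concentration (% inhibition) or at five concentrations to give Ki. They competed with 5 nM [3H](+)-pentazocine for transfected HEK-293 membranes (7 μg) in 50 mM Tris-HCl pH 8 at 37° C for 120 minutes. Nonspecific binding was set with 10 μM haloperidol, and a filtration scintillation read-out was used.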

human σ2/TMEM97 receptor = target: T2, human σ2/TMEM97 receptor (Homo sapiens, UniProt Q5BJF2); assay: Binding assay to human σ2/TMEM97 receptor ([3H]-DTG, transfected HEK-293 membranes); details: class scale, read-out: Binding σ-2 Ki
T2 construct: expressed in transfected cells; host or cells: HEK-293
T2 sequence (Q5BJF2 whole entry): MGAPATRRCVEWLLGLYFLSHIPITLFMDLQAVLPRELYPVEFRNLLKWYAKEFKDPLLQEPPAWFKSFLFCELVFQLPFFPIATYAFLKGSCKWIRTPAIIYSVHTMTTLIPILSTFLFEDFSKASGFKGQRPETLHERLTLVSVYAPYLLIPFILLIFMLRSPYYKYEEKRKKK
How it was run: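 Competition against 10 nM [3H]-DTG (Tris-HCl 50 mM, pH 8.0, 25 °C, 120 min) using 15 μg transfected HEK-293 membrane protein, with 10 μM haloperidol defining NSB. Bound radioactivity counted after filtration; results as single-point % inhibition (1 or 10 μM) or five-point Ki.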

T1 sequence (Q99720 whole entry): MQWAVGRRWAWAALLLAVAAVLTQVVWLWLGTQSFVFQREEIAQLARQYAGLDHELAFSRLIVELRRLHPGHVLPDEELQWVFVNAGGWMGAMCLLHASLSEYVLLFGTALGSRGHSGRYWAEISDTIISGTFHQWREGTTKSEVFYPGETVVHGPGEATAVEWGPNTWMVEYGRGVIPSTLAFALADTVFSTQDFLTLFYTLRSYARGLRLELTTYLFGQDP

| Structure (SMILES) | Ki (human σ1 receptor) [nM] | Ki (human σ2/TMEM97 receptor) [nM] |
| --- | --- | --- |
| Cc1cc(-c2nn(C)c(Cl)c2C(=O)N2CCC3(CCN(CC(=O)N4CCCCC4)CC3)CC2)no1 [Example 112, 2-(9-(5-Chloro-1-methyl-3-(5-methylisoxazol-3-yl)-1H-pyrazole-4-carbonyl)-3,9-diazaspiro[5.5]undecan-3-yl)-1-(piperidin-1-yl)ethanone] | > 1000 | 100 to 500 |
| Cc1cc(-c2nn(C)c(Cl)c2C(=O)N2CCC3(CCN(CC(=O)N4CCC(F)(F)CC4)CC3)CC2)no1 [Example 113, 2-(9-(5-Chloro-1-methyl-3-(5-methylisoxazol-3-yl)-1H-pyrazole-4-carbonyl)-3,9-diazaspiro[5.5]undecan-3-yl)-1-(4,4-difluoropiperidin-1-yl)ethanone] | > 1000 | 100 to 500 |
| Cc1cc(-c2nn(C)c(Cl)c2CN2CCCCC(NCCC(C)C)C2=O)no1 (centres unmarked) [Example 117, 1-((5-Chloro-1-methyl-3-(5-methylisoxazol-3-yl)-1H-pyrazol-4-yl)methyl)-3-(isopentylamino)azepan-2-one] | 100 to 500 | > 1000 |
| Cc1cc(-c2nn(C)c(Cl)c2CN2CCCC(NCCC(C)C)CC2=O)no1 (centres unmarked) [Example 118, 1-((5-Chloro-1-methyl-3-(5-methylisoxazol-3-yl)-1H-pyrazol-4-yl)methyl)-4-(isopentylamino)azepan-2-one] | > 1000 | 100 to 500 |
| Cc1cc(-c2nn(C)c(Cl)c2CCN2CCCC[C@H](NCCC(C)C)C2)no1 [Example 119, (S)-1-(2-(5-Chloro-1-methyl-3-(5-methylisoxazol-3-yl)-1H-pyrazol-4-yl)ethyl)-N-isopentylazepan-3-amine] | < 100 | 100 to 500 |
| Cc1cc(-c2nn(C)c(Cl)c2CC(=O)N2CCC3(CCN(CCC(C)C)CC3)CC2)no1 [Example 120] | 100 to 500 | < 100 |
| Cc1cc(-c2nn(C)c(Cl)c2C(=O)N2CCCC(CN(C)CCC(C)(C)C)C2)no1 (centres unmarked) [Example 121, (5-Chloro-1-methyl-3-(5-methylisoxazol-3-yl)-1H-pyrazol-4-yl)(3-(((3,3-dimethylbutyl)(methyl)amino)methyl)piperidin-1-yl)methanone] | 100 to 500 | 100 to 500 |
| Cc1cc(-c2nn(C)c(Cl)c2C(=O)N2CCCC(CN(C)CC(C)C)C2)no1 (centres unmarked) [Example 122, (5-Chloro-1-methyl-3-(5-methylisoxazol-3-yl)-1H-pyrazol-4-yl)(3-((isobutyl(methyl)amino)methyl)piperidin-1-yl)methanone] | > 1000 | > 1000 |
| Cc1cc(-c2nn(C)c(Cl)c2C(=O)N2CCC[C@H](CNCCC(C)C)C2)no1 [Example 125, (R)-(5-Chloro-1-methyl-3-(5-methylisoxazol-3-yl)-1H-pyrazol-4-yl)(3-((isopentylamino)methyl)piperidin-1-yl)methanone] | > 1000 | 500 to 1000 |
| Cc1cc(-c2nn(C)c(Cl)c2C(=O)N2CCC[C@@H](CNCCC(C)C)C2)no1 [Example 126, (S)-(5-Chloro-1-methyl-3-(5-methylisoxazol-3-yl)-1H-pyrazol-4-yl)(3-((isopentylamino)methyl)piperidin-1-yl)methanone] | > 1000 | > 1000 |
| Cc1cc(-c2nn(C)c(Cl)c2C(=O)N2CCCC3(CCN(Cc4ccc(F)c(F)c4)CC3)C2)no1 [Example 128, (5-Chloro-1-methyl-3-(5-methylisoxazol-3-yl)-1H-pyrazol-4-yl)(9-(3,4-difluorobenzyl)-2,9-diazaspiro[5.5]undecan-2-yl)methanone] | 100 to 500 | < 100 |
| Cc1cc(-c2nn(C)c(Cl)c2C(=O)N2CCC3(CCN(Cc4ccc(F)cc4)CC3)CC2)no1 [Example 129, (5-Chloro-1-methyl-3-(5-methylisoxazol-3-yl)-1H-pyrazol-4-yl)(9-(4-fluorobenzyl)-3,9-diazaspiro[5.5]undecan-3-yl)methanone] | 100 to 500 | < 100 |
| Cc1cc(-c2nn(C)c(Cl)c2C(=O)N2CCC3(CCN(Cc4ccc(F)c(F)c4)CC3)CC2)no1 [Example 130, (5-Chloro-1-methyl-3-(5-methylisoxazol-3-yl)-1H-pyrazol-4-yl)(9-(3,4-difluorobenzyl)-3,9-diazaspiro[5.5]undecan-3-yl)methanone] | 500 to 1000 | 100 to 500 |
| Cc1cc(-c2nn(C)c(Cl)c2C(=O)N2CCC3(CCN(Cc4ccc(C#N)c(F)c4)CC3)CC2)no1 [Example 131, 4-((9-(5-Chloro-1-methyl-3-(5-methylisoxazol-3-yl)-1H-pyrazole-4-carbonyl)-3,9-diazaspiro[5.5]undecan-3-yl)methyl)-2-fluorobenzonitrile] | 500 to 1000 | 500 to 1000 |

Second part, the molecule after the results:

| Ki (human σ1 receptor) [nM] | Ki (human σ2/TMEM97 receptor) [nM] | Structure (SMILES) |
| --- | --- | --- |
| 100 to 500 | 100 to 500 | Cc1cc(-c2nn(C)c(Cl)c2CN2CCC3(CCN(CCC(C)(C)C)CC3)C2=O)no1 [Example 114, 2-((5-Chloro-1-methyl-3-(5-methylisoxazol-3-yl)-1H-pyrazol-4-yl)methyl)-8-(3,3-dimethylbutyl)-2,8-diazaspiro[4.5]decan-1-one] |
| 100 to 500 | < 100 | Cc1cc(-c2nn(C)c(Cl)c2CN2CCC3(CCN(CCC(C)(C)C)CC3)CC2=O)no1 [Example 115, 3-((5-Chloro-1-methyl-3-(5-methylisoxazol-3-yl)-1H-pyrazol-4-yl)methyl)-9-(3,3-dimethylbutyl)-3,9-diazaspiro[5.5]undecan-2-one] |
| 100 to 500 | < 100 | Cc1cc(-c2nn(C)c(Cl)c2CN2CC3(CCN(CCC(C)(C)C)CC3)CC2=O)no1 [Example 116, 2-((5-Chloro-1-methyl-3-(5-methylisoxazol-3-yl)-1H-pyrazol-4-yl)methyl)-8-(3,3-dimethylbutyl)-2,8-diazaspiro[4.5]decan-3-one] |
| > 1000 | < 100 | Cc1cc(-c2nn(C)c(Cl)c2C(=O)N2CC[C@]3(C2)C[C@@H](NCCC(C)(C)C)C3)no1 [Example 123, (5-Chloro-1-methyl-3-(5-methylisoxazol-3-yl)-1H-pyrazol-4-yl)((2r,4s)-2-((3,3-dimethylbutyl)amino)-6-azaspiro[3.4]octan-6-yl)methanone] |
| > 1000 | 100 to 500 | Cn1nc(-c2cccc(O)n2)c(C(=O)N2CCC3(CCN(CCC(C)(C)C)CC3)CC2)c1Cl [Example 124, (5-Chloro-3-(6-hydroxypyridin-2-yl)-1-methyl-1H-pyrazol-4-yl)(9-(3,3-dimethylbutyl)-3,9-diazaspiro[5.5]undecan-3-yl)methanone] |
| < 100 | < 100 | CCn1nc(-c2cc(C)on2)c(C(=O)NC2CC3(CCN(CCC(C)(C)C)CC3)C2)c1Cl [Example 127, 5-Chloro-N-(7-(3,3-dimethylbutyl)-7-azaspiro[3.5]nonan-2-yl)-1-ethyl-3-(5-methylisoxazol-3-yl)-1H-pyrazole-4-carboxamide] |
| 100 to 500 | < 100 | CC(C)c1cc(-c2nn(C)c(Cl)c2C(=O)N2CCCC3(CCN(CCC(C)(C)C)CC3)C2)no1 [Example 132, (5-Chloro-3-(5-isopropylisoxazol-3-yl)-1-methyl-1H-pyrazol-4-yl)(9-(3,3-dimethylbutyl)-2,9-diazaspiro[5.5]undecan-2-yl)methanone] |
| 500 to 1000 | < 100 | CCc1nc(C)c(-c2nn(C)c(Cl)c2C(=O)N2CCCC3(CCN(CCC(C)(C)C)CC3)C2)o1 [Example 133, (5-Chloro-3-(2-ethyl-4-methyloxazol-5-yl)-1-methyl-1H-pyrazol-4-yl)(9-(3,3-dimethylbutyl)-2,9-diazaspiro[5.5]undecan-2-yl)methanone] |
| < 100 | < 100 | CCn1nc(-c2cc(C)on2)c(C(=O)NC2CCC3(CC2)CN(CCC(C)(C)C)C3)c1Cl [Example 134, 5-Chloro-N-(2-(3,3-dimethylbutyl)-2-azaspiro[3.5]nonan-7-yl)-1-ethyl-3-(5-methylisoxazol-3-yl)-1H-pyrazole-4-carboxamide] |
| > 1000 | < 100 | Cn1cc(-c2nn(C)c(Cl)c2C(=O)N2CCCC3(CCN(CCC(C)(C)C)CC3)C2)cn1 [Example 135, (5-Chloro-1,1′-dimethyl-1H,1′H-[3,4′-bipyrazol]-4-yl)(9-(3,3-dimethylbutyl)-2,9-diazaspiro[5.5]undecan-2-yl)methanone] |
| < 100 | < 100 | CCc1cc(-c2nn(CC)c(Cl)c2C(=O)NC2CC3(CCN(CCC(C)(C)C)CC3)C2)no1 [Example 136, 5-Chloro-N-(7-(3,3-dimethylbutyl)-7-azaspiro[3.5]nonan-2-yl)-1-ethyl-3-(5-ethylisoxazol-3-yl)-1H-pyrazole-4-carboxamide] |
| < 100 | < 100 | CCc1cc(-c2nn(CC)c(Cl)c2C(=O)NC2CCC3(CC2)CN(CCC(C)(C)C)C3)no1 [Example 137, 5-Chloro-N-(2-(3,3-dimethylbutyl)-2-azaspiro[3.5]nonan-7-yl)-1-ethyl-3-(5-ethylisoxazol-3-yl)-1H-pyrazole-4-carboxamide] |
| 500 to 1000 | < 100 | CCn1ccc(-c2nn(C)c(Cl)c2C(=O)N2CCCC3(CCN(CCC(C)(C)C)CC3)C2)n1 [Example 138, (5-Chloro-1′-ethyl-1-methyl-1H,1′H-[3,3′-bipyrazol]-4-yl)(9-(3,3-dimethylbutyl)-2,9-diazaspiro[5.5]undecan-2-yl)methanone] |
| 100 to 500 | < 100 | CCn1nc(-c2ccon2)c(C(=O)NC2CC3(CCN(CCC(C)(C)C)CC3)C2)c1Cl [Example 139, 5-Chloro-N-(7-(3,3-dimethylbutyl)-7-azaspiro[3.5]nonan-2-yl)-1-ethyl-3-(isoxazol-3-yl)-1H-pyrazole-4-carboxamide] |
